Literature values in US10751019B2, “Determining a brain condition using early time frame PET image analysis” (ADM DIAGNOSTICS, LLC, priority 2015, dated 2020).

Conditions: PET tracer in brain, time after tracer injection; varies with tracer, region of accumulation and target load

Row | SMILES | time to reach equilibrium
1 | [11CH3]Nc1ccc(-c2nc3ccc(O)cc3s2)cc1 [11C-PiB] | about 45 minutes
2 | CNc1ccc(/C=C/c2ccc(OCCOCCOCCF)nc2)cc1 [florbetapir] | 40 to 45 min
3 | CNc1ccc(-c2nc3ccc(O)cc3s2)cc1F [flutemetamol] | about 80 minutes
